# Assays:
# [1] = Crystalline form stability assay of crystalline form A - solvent water activity; format: physicochemical; settings: for Crystalline form (XRPD): 20° C., 4 days
# Procedure: The solutions were centrifuged to give precipitates, and the precipitates were dried under vacuum at 50° C. and subjected to XRPD.
# CXCR2 = molecular target: T1, CXCR2 (Homo sapiens, UniProt P25025); test: PathHunter CXCR2 β-arrestin cell assay (CXCL8 agonist, chemiluminescence); format: cell-based; settings: listed as crystalline form A of the compound 1
# T1 sequence (P25025 1-360): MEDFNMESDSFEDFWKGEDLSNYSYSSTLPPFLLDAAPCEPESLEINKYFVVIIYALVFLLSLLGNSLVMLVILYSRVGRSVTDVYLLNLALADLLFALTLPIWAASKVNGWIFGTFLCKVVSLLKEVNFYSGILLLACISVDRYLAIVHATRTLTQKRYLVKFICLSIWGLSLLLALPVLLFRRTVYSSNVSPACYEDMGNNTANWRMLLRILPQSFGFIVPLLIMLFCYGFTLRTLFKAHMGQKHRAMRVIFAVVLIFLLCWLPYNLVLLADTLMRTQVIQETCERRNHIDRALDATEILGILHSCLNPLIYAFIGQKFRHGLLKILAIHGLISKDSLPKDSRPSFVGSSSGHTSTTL
# Procedure: CXCR2 β-arrestin cells (DiscoverX) of PathHunter® were cultured in standard conditions and inoculated at 20 μL/well to a 384-well white microplate. Before testing, the cells were incubated at 37° C. for an appropriate period of time. The test compound was serially 3-fold diluted in DMSO to give 8 concentrations. Shortly before testing, the serially diluted test samples were further diluted with test buffer to 5 folds of the test concentration. 5 μL of further diluted test samples were added to the cells and the cells were incubated at 37° C. for 30 min. The concentration of vehicle was 1%. 5 μL of 6×EC80 agonist (CXCL8) buffer was then added to the cells, and the cells were incubated at 37° C. for 90 min. The test signal was generated by adding 15 μL (50% v/v) of PathHunter detection mixture reagent in one portion and subsequently incubating the cells for 1 h. The chemiluminescence signal of the microplate was read by a PerkinElmer Envision™ instrument. The biological activities of the test compounds were analyzed by CBIS data analysis kit (ChemInnovation, CA), shown as IC50 values.
# [2] = system: PPE-induced SD rat COPD model; test: Therapeutic effect on PPE-induced COPD model; format: in vivo, SD rats; settings: dose not stated (technical effects summary)
# Excerpt: • To test the therapeutic effect of the compound on PPE-induced SD rat COPD model. Materials: • Animals: SD rats (male, 160-180 g, 6 weeks age) • Test compounds: porcine pancreatic elastase (Sigma, 0.068 U/μL); Danirixin, compound 1. • Grouping: 1) vehicle group • 2) COPD model group (porcine pancreatic elastase modeling group/solvent group) • 3) PPE+Danirixin (30 mpk) • 4) PPE+compound 1 (10 mpk) • 5) PPE+compound 1 (30 mpk) Procedures: • 1. Modeling: PPE was given retrolingually. • 2. Administration: an aqueous solution of 1% DMSO/20% PEG400/79% (HP-b-CD) was used as the vehicle, and the drugs were administrated intragastrically everyday at a volume of 2 mL/rat for 4 weeks. • 3. Endpoint: On day 29, pulmonary function test, sample collection, and inflammatory cell count in bronchoalveolar lavage fluid.
# Bronchoalveolar lavage: The rats were sacrificed, and dissected at the neck. Trachea intubation was performed. 1 mL of cold […] at 4° C. was infused for 3 lavages, and the lavage fluids were combined. The combined lavage fluids were centrifuged at 1200 rpm/min for 5 min, and the supernatant was discarded. The cell suspension was collected;
smiles,measurement,setting,value
O=C(Nc1ccc(Cl)c(S(=O)(=O)[C@H]2CCCNC2)c1O)N[C@@H]1CCCc2cc(C(F)(F)F)oc21 [crystalline form A],Stability of the crystalline form in solvents (in words),"[1]; methanol, ethanol, methanol/water, water",stable in the above solvents
same,Crystalline form (XRPD),"[1]; stirred in ethanol, 100 mg/mL",Crystalline form A
same,Crystalline form (XRPD),"[1]; stirred in methanol, 100 mg/mL",Crystalline form A
same,Crystalline form (XRPD),"[1]; stirred in methanol/water = 1/1.5, 100 mg/mL",Crystalline form A
same,Crystalline form (XRPD),"[1]; stirred in water, 100 mg/mL",Crystalline form A
same,Antagonism against the CXCR2 receptor (in words),CXCR2,significant inhibitory effect
same,Number of neutrophils,[2],significantly reduce the number of neutrophils
same,Pulmonary function,[2],significantly improve the pulmonary function
